Reference: publication PMC8372460 (European Journal of Medicinal Chemistry, 2021)
Read-outs that look alike come from different tables or passages of the source.

How the values were obtained:
SARS-CoV-2 M^pro = SARS-CoV-2 M^pro (Severe acute respiratory syndrome coronavirus 2, UniProt P0DTD1); format: biochemical
[1] = concentrations ranging from 100 μg/mL to 10 ng/mL; cited from earlier work
[2] = tested on: human normal fibroblast HFF-1 cells; assay: In vitro cytotoxicity evaluation, MTT assay; format: cell-based; conditions: read-out: IC50 values towards HFF-1 cells, 48 h
latent HIV-1 = conditions: bcl-2-transduced primary CD4+ T cell model; cited from earlier work
[3] = tested on: Vesicular Stomatitis Virus; conditions: cited from earlier work
[4] = tested on: normal peripheral blood mononuclear cells; conditions: cited from earlier work
[5] = patients with hypoprothrombinemia, doses from 1 to 200 mg; cited from earlier work
[6] = Balb/C mice, 100 mg/kg, p.o., 10 times in 20 days
Vero E6 cells = conditions: under tested concentrations

For `CC(C)=CC[C@@H](O)C1=CC(=O)c2c(O)ccc(O)c2C1=O` [Compound 1, shikonin, reference compound], the “inhibitory effect towards M^pro (in words)” value (SARS-CoV-2 M^pro; 10 μM) is given as “moderate inhibitory effects” and the “cytotoxic effects in vitro” value [1] is given as “significant cytotoxic effects”.
In the case of `O=C1C=CC(=O)c2c(O)cccc21` [Compound 2, juglone], the IC50 [2] is given as less than 5 µM, the “reactivation of latent HIV-1” value (latent HIV-1) is given as “potently reactivate latent HIV-1” and the “inhibitory effect towards M^pro (in words)” value (SARS-CoV-2 M^pro; 1 μM) is given as “completely inactivated the main protease”. For the same compound, the “inhibitory effect towards M^pro (in words)” value (SARS-CoV-2 M^pro; 10 μM) was “completely loss of the hydrolytic efficacy”, the “activity against Vesicular Stomatitis Virus” value [3] was “active” and the “IC50, cytotoxicity against normal peripheral blood mononuclear cells” value [4] was “more than 5 μg/mL”.
For `CC1=CC(=O)c2ccccc2C1=O` [Compound 3, 2-Methyl-1,4-naphthoquinone, reference compound], the “toxic effects in patients” value [5] is given as “no toxic effects were observed” and the “inhibitory effect towards M^pro (in words)” value (SARS-CoV-2 M^pro; 10 μM) is given as “inactive”.
With `O=C1C=C(O)C(=O)c2ccccc21` [Compound 7, 2-hydroxy-1,4-naphthoquione] the “inhibitory effect towards M^pro (in words)” value (SARS-CoV-2 M^pro; 10 μM) was “did not exhibit any detectable inhibition”.
With `COc1cccc2c1C(=O)C(C(C)=O)=CC2=O` [Compound 15, 2-acetyl-8-methoxy-1,4-naphthoquinone] the animal deaths [6] was “no animal deaths”, the “body weight change compared with control animals” value [6] was “minor body weight loss” and the “toxicity symptoms (reduced activity, hypothermia, body shivering)” value ([6]; every other day) was “did not show any obvious toxicity symptoms”. For the same compound, the “toxicity towards host Vero E6 cells (in words)” value (Vero E6 cells) was “non-toxic”.
In the case of `Cc1cc(O)c2c(c1)C(=O)C=CC2=O` [Compound 16, 7-Methyl juglone], the IC50 [2] is reported as less than 5 µM, the “Mpro inhibition rate at different conc. (%) 0.1 μM” value (SARS-CoV-2 M^pro) is reported as 21.7% and the “Mpro inhibition rate at different conc. (%) 1 μM” value (SARS-CoV-2 M^pro) is reported as 99.6%. For the same compound, the “inhibitory effect towards M^pro (in words)” value (SARS-CoV-2 M^pro) was “completely loss of the hydrolytic efficacy”.
With `CC1=CC(=O)c2c(O)cccc2C1=O` [Compound 17, Plumbagin] the “inhibitory effect towards M^pro (in words)” value (SARS-CoV-2 M^pro; 10 μM) was “inactive”.
With `COc1cc(C)cc2c1C(=O)C=CC2=O` [Compound 22, 7-methyl juglone methyl ether] the “inhibitory effect towards M^pro (in words)” value (SARS-CoV-2 M^pro) was “did not show any inhibitory effects”.
